{
  "source": "patent US6525001B1",
  "about": "“Substituted pyrimidine and pyridine herbicides” (Mid-American Commercialization Corporation, priority 1997, dated 2003)",
  "type_in_all_cases": "in vivo",
  "key": {"wild oat (Avena fatua)": {"system": "wild oat (Avena fatua)", "assay": "Test B pre-/postemergence", "set-up": "key: 0 is no effect; 10 is complete control", "procedure,_shortened": "(§1)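 Response scores run from 0, meaning no effect, to 10, meaning complete control, assigned by eye relative to controls twelve to sixteen days after spraying. Treatment was both preemergence on planted seed and postemergence on plants at the 1- to 4-leaf stage.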"}, "[1]": {"system": "momingglory (Ipomoea hederacea)", "assay": "Test B pre-/postemergence", "set-up": "key: 0 is no effect; 10 is complete control", "procedure,_shortened": "as §1"}, "[2]": {"system": "broadleaf signalgrass (Brachiaria decumbens)", "assay": "Test B pre-/postemergence", "set-up": "key: 0 is no effect; 10 is complete control", "settings": "for B. signalgrass plant response rating: Preemergence", "procedure,_shortened": "as §1"}, "[3]": {"system": "bedstraw (Galium aparine)", "assay": "Test B pre-/postemergence", "set-up": "key: 0 is no effect; 10 is complete control", "settings": "for Bedstraw plant response rating: Preemergence", "procedure,_shortened": "as §1"}, "[4]": {"system": "giant foxtail (Setaria faberii)", "assay": "Test B pre-/postemergence", "set-up": "key: 0 is no effect; 10 is complete control", "procedure,_shortened": "as §1"}, "[5]": {"system": "ladysthumb smartweed (Polygonum persicaria)", "assay": "Test C", "settings": "PREEMERGENCE"}, "[6]": {"system": "common ragweed (Ambrosia elatior)", "assay": "Test C", "settings": "PREEMERGENCE"}, "[7]": {"system": "surinam grass (Brachiaria decumbens)", "assay": "Test C", "settings": "PREEMERGENCE"}, "[8]": {"system": "velvetleaf (Abutilon theophrasti)", "assay": "Test C", "settings": "PREEMERGENCE"}, "[9]": {"system": "cocklebur (Xanthium strumarium)", "assay": "Test C", "set-up": "key: 0 was no effect; 100 was complete control", "settings": "PREEMERGENCE"}, "[10]": {"system": "cotton (Gossypium hirsutum)", "assay": "Test C", "settings": "PREEMERGENCE"}, "[11]": {"system": "giant foxtail (Setaria faberii)", "assay": "Test C", "set-up": "key: 0 was no effect; 100 was complete control", "settings": "PREEMERGENCE"}, "corn (Zea mays)": {"system": "corn (Zea mays)", "assay": "Test C", "settings": "PREEMERGENCE"}, "[12]": {"settings": "Rate 250 g/ha, Postemergence (so in the source)"}},
  "data": [
    {"smiles": "Cc1cnc(-n2ccc(C(F)(F)F)n2)nc1Cc1cccc(OC(F)(F)F)c1", "note": "[Compound 42]", "values": [
      {"measurement": "Wild oats plant response rating", "setting": "wild oat (Avena fatua); Rate 62 g/ha, Postemergence", "value": 6},
      {"measurement": "Wild oats plant response rating", "setting": "wild oat (Avena fatua); Rate 62 g/ha, Preemergence", "value": 4},
      {"measurement": "Wild oats plant response rating", "setting": "wild oat (Avena fatua); Rate 125 g/ha, Postemergence", "value": 6},
      {"measurement": "Plant response rating, Wild oats", "setting": "wild oat (Avena fatua); Rate 125 g/ha, Preemergence", "value": 8},
      {"measurement": "Plant response rating, Wild oats", "setting": "wild oat (Avena fatua); Rate 250 g/ha, Postemergence", "value": 6},
      {"measurement": "Plant response rating, Wild oats", "setting": "wild oat (Avena fatua); [12]", "value": 9},
      {"measurement": "Plant response rating, Morningglory", "setting": "[1]; Rate 62 g/ha, Postemergence", "value": 8},
      {"measurement": "Morningglory plant response rating", "setting": "[1]; Rate 62 g/ha, Preemergence", "value": 9},
      {"measurement": "Morningglory plant response rating", "setting": "[1]; Rate 125 g/ha, Postemergence", "value": 9},
      {"measurement": "Morningglory plant response rating", "setting": "[1]; Rate 125 g/ha, Preemergence", "value": 10},
      {"measurement": "Plant response rating, Morningglory", "setting": "[1]; Rate 250 g/ha, Postemergence", "value": 9},
      {"measurement": "Plant response rating, Morningglory", "setting": "[1]; [12]", "value": 10},
      {"measurement": "Plant response rating, B. signalgrass", "setting": "[2]; Rate 62 g/ha, Postemergence", "value": 6},
      {"measurement": "B. signalgrass plant response rating", "setting": "[2]; Rate 62 g/ha", "value": 9},
      {"measurement": "Plant response rating, B. signalgrass", "setting": "[2]; Rate 125 g/ha, Postemergence", "value": 7},
      {"measurement": "B. signalgrass plant response rating", "setting": "[2]; Rate 125 g/ha", "value": 9},
      {"measurement": "Plant response rating, B. signalgrass", "setting": "[2]; Rate 250 g/ha, Postemergence", "value": 7},
      {"measurement": "Plant response rating, B. signalgrass", "setting": "[2]; Rate 250 g/ha, Postemergence as printed in head r139 (second section for compounds 26-50)", "value": 10},
      {"measurement": "Plant response rating, Bedstraw", "setting": "[3]; Rate 62 g/ha, Postemergence", "value": 9},
      {"measurement": "Bedstraw plant response rating", "setting": "[3]; Rate 62 g/ha", "value": 7},
      {"measurement": "Plant response rating, Bedstraw", "setting": "[3]; Rate 125 g/ha, Postemergence", "value": 9},
      {"measurement": "Bedstraw plant response rating", "setting": "[3]; Rate 125 g/ha", "value": 8},
      {"measurement": "Plant response rating, Bedstraw", "setting": "[3]; [12]", "value": 8},
      {"measurement": "Plant response rating, Giant foxtail", "setting": "[4]; Rate 62 g/ha, Postemergence", "value": 6},
      {"measurement": "Giant foxtail plant response rating", "setting": "[4]; Rate 62 g/ha, Preemergence", "value": 10},
      {"measurement": "Giant foxtail plant response rating", "setting": "[4]; Rate 125 g/ha, Postemergence", "value": 7},
      {"measurement": "Giant foxtail plant response rating", "setting": "[4]; Rate 125 g/ha, Preemergence", "value": 10},
      {"measurement": "Plant response rating, Giant foxtail", "setting": "[4]; Rate 250 g/ha, Postemergence", "value": 9},
      {"measurement": "Plant response rating, Giant foxtail", "setting": "[4]; [12]", "value": 10},
      {"measurement": "Plant response rating, Ladysthumb", "setting": "[5]; Rate 35 g/ha", "value": 90},
      {"measurement": "Plant response rating, Ladysthumb", "setting": "[5]; Rate 70 g/ha", "value": 85},
      {"measurement": "Plant response rating, Ladysthumb", "setting": "[5]; Rate 140 g/ha", "value": 95},
      {"measurement": "Plant response rating, Common ragweed", "setting": "[6]; Rate 35 g/ha", "value": 20},
      {"measurement": "Plant response rating, Common ragweed", "setting": "[6]; Rate 70 g/ha", "value": 85},
      {"measurement": "Plant response rating, Common ragweed", "setting": "[6]; Rate 140 g/ha", "value": 85},
      {"measurement": "Plant response rating, Surinam grass", "setting": "[7]; Rate 35 g/ha", "value": 50},
      {"measurement": "Plant response rating, Surinam grass", "setting": "[7]; Rate 70 g/ha", "value": 55},
      {"measurement": "Plant response rating, Surinam grass", "setting": "[7]; Rate 140 g/ha", "value": 70},
      {"measurement": "Plant response rating, Velvetleaf", "setting": "[8]; Rate 35 g/ha", "value": 40},
      {"measurement": "Plant response rating, Velvetleaf", "setting": "[8]; Rate 70 g/ha", "value": 80},
      {"measurement": "Plant response rating, Velvetleaf", "setting": "[8]; Rate 140 g/ha", "value": 95},
      {"measurement": "Plant response rating, Cocklebur", "setting": "[9]; Rate 35 g/ha", "value": 0},
      {"measurement": "Plant response rating, Cocklebur", "setting": "[9]; Rate 140 g/ha", "value": 60},
      {"measurement": "Plant response rating, Cotton", "setting": "[10]; Rate 35 g/ha", "value": 30},
      {"measurement": "Plant response rating, Cotton", "setting": "[10]; Rate 70 g/ha", "value": 60},
      {"measurement": "Plant response rating, Cotton", "setting": "[10]; Rate 140 g/ha", "value": 60},
      {"measurement": "Plant response rating, Giant foxtail", "setting": "[11]; Rate 35 g/ha", "value": 70},
      {"measurement": "Plant response rating, Giant foxtail", "setting": "[11]; Rate 70 g/ha", "value": 80},
      {"measurement": "Plant response rating, Giant foxtail", "setting": "[11]; Rate 140 g/ha", "value": 100},
      {"measurement": "Plant response rating, Corn", "setting": "corn (Zea mays); Rate 35 g/ha", "value": 5},
      {"measurement": "Plant response rating, Corn", "setting": "corn (Zea mays); Rate 70 g/ha", "value": 5},
      {"measurement": "Plant response rating, Corn", "setting": "corn (Zea mays); Rate 140 g/ha", "value": 5}
    ]}
  ]
}
